Publication PMC11093748, “De novo identification of CD4^+ T cell epitopes” (Nature Methods, 2024)

Tests used:
Type in all cases: cell-based, mouse
[1] = test system: TCR 4 Analog 1; test: Single SABR-II co-incubation, TCR analogs; details: Fig 4B
Text: (§1) We hypothesized that computational grouping of TCR specificities may reveal closely related TCRs that potentially recognize the same epitope(s), similar to the reverse epitope discovery approach (Fig. 4a). In the absence of experimental antigen discovery, grouping of TCRs is not informative of reactivity; however, we hypothesized that TCRs that co-clustered with SABR-II de-convoluted TCRs bind to the same antigens. To test this, we used three TCR-similarity search algorithms: GLIPH2 (refs. [38],[69]), tcrdist3 (ref. [37]) and CoNGA[39]. All three algorithms take slightly different approaches to group TCR sequences and generate clusters of TCR sequences that share high sequence similarity. In addition, CoNGA considers the transcriptional similarities among T cell clones. Using CoNGA, we defined TCR clusters for two TCRs, TCR4 and TCR6B, and identified analogs that slightly differed in sequences. Moreover, for TCR30, we were able to identify six TCR analogs that co-clustered in CoNGA analysis as well as GLIPH2. For TCR11, we first identified a gene expression (GEX) cluster that had ~50 TCRs that clustered based on gene expression. Using tcrdist3, we calculated the relative distance of each of these TCRs from TCR11 and selected the top seven clonotypes for expression. Together, 16 TCRs were identified as analogs of the experimentally de-convoluted TCRs (Extended Data Fig. 8). These TCRs were cloned and expressed in Jurkat cells. We performed co-incubation assays using single SABR-IIs and observed that 5 of 16 TCRs recognized the same epitopes as the parental TCRs (Fig. 4b). As a result, we were able to identify the cognate epitopes of five additional TCRs from our dataset that had otherwise not been selected for SABR-II screening based on our clonal expansion cutoff.
(§2) Exported clonotypes were used as inputs for GLIPH2 (ref. [69]). For CoNGA, the merged dataset was exported as a .h5ad file and used as an input along with the CellRanger vdj output file. CoNGA analysis was performed using default parameters. Pairwise relative distances among TCRs were calculated using tcrdist3 (ref. [37]). CoNGA, tcrdist3 and GLIPH2 output files were searched manually for analogs that co-cluster with experimentally de-convoluted TCRs. Analogs were synthesized and cloned as described above.
(§3) For SABR library screens, 3 × 10^6 NFAT–GFP Jurkat cells expressing the SABR library were labeled with CellTrace Violet (BioLegend) according to the manufacturer’s protocol before incubation with 3 × 10^6 Jurkat cells expressing the TCR of interest. These mixtures were incubated in a six-well plate for 16–20 h. Cells were stained with anti-CD69-APC-Cy7 where indicated (BioLegend) and the top 1–2% of GFP^+CD69^+ cells were sorted for genomic DNA extraction, indexing and sequencing (see below). Multiplexed assays were scaled on a per-TCR basis (for example 3 × 10^6 for each of three TCRs against 9 × 10^6 library cells). For single SABR assays, unless otherwise defined, 5 × 10^5 SABR expressing NFAT–GFP Jurkat cells (or 5KC cells) were labeled with CellTrace Violet (BioLegend) according to the manufacturer’s protocol before incubation with 5 × 10^5 TCR-expressing Jurkat cells (or 5KC cells) in a round-bottom 96-well plate for 16–20 h. Cells were stained with anti-CD69-APC-Cy7 when indicated and acquired on the Attune NxT flow cytometer (Thermo Fisher Scientific). All flow analysis was performed using FlowJo (BD). For Daudi cell co-culture, 1 × 10^6 Jurkat cells expressing the TCR of interest were incubated with 1 × 10^6 Daudi cells expressing a SABR of interest for 3 days. On day 3, cells were labeled with anti-RT1B-PE and anti-Fas-APC-Cy7 before being acquired on the Attune NxT flow cytometer.

[2] = test system: TCR 4 Analog 2; test: Single SABR-II co-incubation, TCR analogs; details: Fig 4B
Text: as §1, §2, §3

[3] = test system: TCR 11 Analog 1; test: Single SABR-II co-incubation, TCR analogs; details: Fig 4B
Text: as §1, §2, §3

[4] = test system: TCR 11 Analog 2; test: Single SABR-II co-incubation, TCR analogs; details: Fig 4B
Text: as §1, §2, §3

[5] = test system: TCR 11 Analog 3; test: Single SABR-II co-incubation, TCR analogs; details: Fig 4B
Text: as §1, §2, §3

[6] = test system: TCR 11 Analog 4; test: Single SABR-II co-incubation, TCR analogs; details: Fig 4B
Text: as §1, §2, §3

[7] = test system: TCR 11 Analog 5; test: Single SABR-II co-incubation, TCR analogs; details: Fig 4B
Text: as §1, §2, §3

[8] = test system: TCR 11 Analog 6; test: Single SABR-II co-incubation, TCR analogs; details: Fig 4B
Text: as §1, §2, §3

[9] = test system: TCR 11 Analog 7; test: Single SABR-II co-incubation, TCR analogs; details: Fig 4B
Text: as §1, §2, §3

[10] = test system: TCR 30 Analog 1; test: Single SABR-II co-incubation, TCR analogs; details: Fig 4B
Text: as §1, §2, §3

[11] = test system: TCR 30 Analog 2; test: Single SABR-II co-incubation, TCR analogs; details: Fig 4B
Text: as §1, §2, §3

[12] = test system: TCR 30 Analog 3; test: Single SABR-II co-incubation, TCR analogs; details: Fig 4B
Text: as §1, §2, §3

[13] = test system: TCR 30 Analog 4; test: Single SABR-II co-incubation, TCR analogs; details: Fig 4B
Text: as §1, §2, §3

[14] = test system: TCR 30 Analog 5; test: Single SABR-II co-incubation, TCR analogs; details: Fig 4B
Text: as §1, §2, §3

[15] = test system: TCR 30 Analog 6; test: Single SABR-II co-incubation, TCR analogs; details: Fig 4B
Text: as §1, §2, §3

[16] = test system: 5KC cells, No TCR; test: mIL-2 ELISA, 5KC cells without TCR with SABR NFAT-GFP Jurkat cells; details: murine IL-2 ELISA, 24 hr co-incubation

LQTLALNAARDP
%GFP+CD69+ cells of SABR-NFAT-GFP-Jurkat cells ([1]; technical replicate 1): 1.53%
%GFP+CD69+ cells of SABR-NFAT-GFP-Jurkat cells ([1]; technical replicate 2): 1.83%
%GFP+CD69+ cells of SABR-NFAT-GFP-Jurkat cells ([2]; technical replicate 1): 1%
%GFP+CD69+ cells of SABR-NFAT-GFP-Jurkat cells ([2]; technical replicate 2): 0.84%

SHLVEALYLVCGERG
%GFP+CD69+ cells of SABR-NFAT-GFP-Jurkat cells ([3]; technical replicate 1): 0.66%
%GFP+CD69+ cells of SABR-NFAT-GFP-Jurkat cells ([3]; technical replicate 2): 0.81%
%GFP+CD69+ cells of SABR-NFAT-GFP-Jurkat cells ([4]; technical replicate 1): 17.2%
%GFP+CD69+ cells of SABR-NFAT-GFP-Jurkat cells ([4]; technical replicate 2): 16.8%
%GFP+CD69+ cells of SABR-NFAT-GFP-Jurkat cells ([5]; technical replicate 1): 0.85%
%GFP+CD69+ cells of SABR-NFAT-GFP-Jurkat cells ([5]; technical replicate 2): 1.04%
%GFP+CD69+ cells of SABR-NFAT-GFP-Jurkat cells ([6]; technical replicate 1): 0.89%
%GFP+CD69+ cells of SABR-NFAT-GFP-Jurkat cells ([6]; technical replicate 2): 0.88%
%GFP+CD69+ cells of SABR-NFAT-GFP-Jurkat cells ([7]; technical replicate 1): 20.3%
%GFP+CD69+ cells of SABR-NFAT-GFP-Jurkat cells ([7]; technical replicate 2): 19.7%
%GFP+CD69+ cells of SABR-NFAT-GFP-Jurkat cells ([8]; technical replicate 1): 1%
%GFP+CD69+ cells of SABR-NFAT-GFP-Jurkat cells ([8]; technical replicate 2): 1.08%
%GFP+CD69+ cells of SABR-NFAT-GFP-Jurkat cells ([9]; technical replicate 1): 0.78%
%GFP+CD69+ cells of SABR-NFAT-GFP-Jurkat cells ([9]; technical replicate 2): 1.05%
%GFP+CD69+ cells of SABR-NFAT-GFP-Jurkat cells ([10]; replicate 1): 3.25%
%GFP+CD69+ cells of SABR-NFAT-GFP-Jurkat cells ([10]; replicate 2): 3.04%
%GFP+CD69+ cells of SABR-NFAT-GFP-Jurkat cells ([10]; replicate 3): 3.1%
%GFP+CD69+ cells of SABR-NFAT-GFP-Jurkat cells ([11]; replicate 1): 19.2%
%GFP+CD69+ cells of SABR-NFAT-GFP-Jurkat cells ([11]; replicate 2): 19%
%GFP+CD69+ cells of SABR-NFAT-GFP-Jurkat cells ([11]; replicate 3): 20%
%GFP+CD69+ cells of SABR-NFAT-GFP-Jurkat cells ([12]; replicate 1): 1.16%
%GFP+CD69+ cells of SABR-NFAT-GFP-Jurkat cells ([12]; replicate 2): 1.27%
%GFP+CD69+ cells of SABR-NFAT-GFP-Jurkat cells ([12]; replicate 3): 1.1%
%GFP+CD69+ cells of SABR-NFAT-GFP-Jurkat cells ([13]; replicate 1): 1.2%
%GFP+CD69+ cells of SABR-NFAT-GFP-Jurkat cells ([13]; replicate 2): 1.13%
%GFP+CD69+ cells of SABR-NFAT-GFP-Jurkat cells ([13]; replicate 3): 1.05%
%GFP+CD69+ cells of SABR-NFAT-GFP-Jurkat cells ([14]; replicate 1): 34.3%
%GFP+CD69+ cells of SABR-NFAT-GFP-Jurkat cells ([14]; replicate 2): 35.1%
%GFP+CD69+ cells of SABR-NFAT-GFP-Jurkat cells ([14]; replicate 3): 34.2%
%GFP+CD69+ cells of SABR-NFAT-GFP-Jurkat cells ([15]; replicate 1): 1.04%
%GFP+CD69+ cells of SABR-NFAT-GFP-Jurkat cells ([15]; replicate 2): 1.01%
%GFP+CD69+ cells of SABR-NFAT-GFP-Jurkat cells ([15]; replicate 3): 0.97%
IL-2 secretion ([16]; technical replicate 1): 2.192
IL-2 secretion ([16]; technical replicate 2): 4.996
